# From patent publication US7320806B2, “Compositions and methods for treating NIDDM and other conditions and disorders associated with AMPK regulation” (priority 2003, dated 2008)
# Entries after “also recorded” stand apart in the source; their conditions may differ.
# Key:
# [1] = test system: hippocampal neurons; settings: glucose deprivation, chemical hypoxia, glutamate, amyloid beta-peptide; cited from earlier work
# [2] = test system: astrocytes; settings: incubation of astrocytes; cited from earlier work
# [3] = test system: rat epitrochlearis muscles; settings: 30 microU/ml insulin, treated 3.5 h previously; cited from earlier work
# [4] = administered before ischemia; cited from earlier work
# [5] = chronic administration; cited from earlier work
# [6] = test system: 3T3-L1 adipocytes; settings: added at an early phase of differentiation; cited from earlier work
# [7] = test system: AMPK; settings: cited from earlier work
# [8] = test system: L6 muscle cells; assay: glucose uptake (2-NBDG) in L6 myotubes; format: cell-based
# Experimental: The permeate portion of GMM was tested for glucose uptake in L6 muscle cells. L6 cells were grown as monolayers in Dulbecco's modified Eagle's medium (DMEM) containing 1 mM glutamine, 1 mM pyruvate and 25 mM glucose. The medium was supplemented with 5% fetal calf serum (FCS). Experiments were undertaken in 48-well plates seeded from pre-confluent flasks with 50 000 cells per well. The cells were grown to confluence and the medium was changed to DMEM containing 0.5% FCS and 2.5 mM glucose (L6 Myo Medium) for at least 76 hrs to induce differentiation of L6 cells and formation of L6 myotubes. Myotubes were then incubated with test substances for 30 minutes—Protocol SMM, or in Dulbecco's PBS supplemented with 20 mM Hepes and 2 mM glucose without serum—Serum-free Medium (SFM) Protocol as described by Fryer et al. (Activation of glucose transport by AMP-activated protein kinase via stimulation of Nitric oxide synthase, Diabetes, 49(12), 1978-85, 2000, Fryer LGD, et al, herein incorporated by reference in its entirety.).
# Next, 30 uM of 2-NBDG was added for 2 minutes at 22 C. Subsequently, cell culture medium was removed and cells were washed twice with cold DPBS. Then, cells were lysed in 0.5% SDS. Fluorescence was measured at 466/542 nm (excitation/emission) using 100 ul of cell lysate in 2 ml of water.
# Cells were cultured, and treated in L6 Myo Medium (SSM)—SSM Protocol or in serum-free medium (SFM—DPBS containing 20 mM Hepes, 2 mM glucose)—SFM Protocl as described by Fryer et al. Glucose uptake was measured by adding 30 uM of 2-NBDG for 2′ at 22 C. Experiments were performed in duplicates.
# L-NMMA has been used in the experiment to verify whether GMM-induced glucose transport in L6 cells is or is not inhibited by NOS inhibitors, thus mimicking AICAR-induced mechanism of increased glucose transport. […]
# In FIG. 14, permeate cells were tested to determine whether permeate-induced glucose uptake could be inhibited by L-NMMA at the same concentration as that used for inhibition of the AICA effect on glucose uptake. […] Glucose uptake was measured at 22 C for 2 minutes.
# [9] = test system: AMPK alpha2; settings: treatment for 10 weeks; cited from earlier work
molecule,measurement,setting,value
"NC(=O)c1ncn([C@@H]2O[C@H](COP(=O)(O)O)[C@@H](O)[C@H]2O)c1N [AICAR, 5′-aminoimidazole 4-carboxamide 1-ribonucleotide]",neuronal death,[1],protected hippocampal neurons against death
same,ketogenesis from palmitate and carnitine palmitoyltransferase I,[2],stimulate
same,increase in glucose transport in response to insulin versus untreated control muscles,[3],about twofold greater
same,energy metabolism and hepatic injury,[4],simulated the benefits of preconditioning
same,GLUT4 protein expression,[5],enhance
same,HDL cholesterol levels,[5],increased
same,fasting concentrations of glucose and insulin,[5],decreased
same,lowering of systolic blood pressure,[5],14.6+/−4.3 mmHg
same,oral glucose tolerance test,[5],normalized
same,plasma triglyceride levels,[5],significantly reduced
same,differentiation of 3T3-L1 adipocytes,[6],inhibit the differentiation
same,increase in AMPK activity over the resting level,[7],two- to three-fold increase
"CC(=O)O.CNC(=N)NCCC[C@H](N)C(=O)O [L-NMMA, NG-methyl-L-arginine, acetate salt]",effect on permeate/GMM-induced glucose uptake,"[8]; L-NMMA 300 uM, 30 minutes pre-treatment in DPBS, acetate salt",inhibits; also recorded: blocks
"CN(C)C(=N)N=C(N)N [Metformin, metformin]",AMPK alpha2 activity in the skeletal muscle,[9],significantly increased
insulin,glucose uptake increase,[8]; culture medium supplemented with 0.5% FCS (SSM),100-120%
same,glucose uptake increase,[8]; serum-free medium (DPBS),40-50%
